#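 Test compounds were applied to cells in 96-well plates for 48 hours at 5 doses. GI50 marks 50% less growth.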 Active and inactive are the calls of the source. Cut-off read from the data, not from the text of the source: active = GI50 up to about 1.1 µM and inactive = higher.
# Tests used:
# Experiment in all cases: growth of human tumour cells (NCI), 48 h
# [1] = test system: LOX IMVI
# [2] = test system: UACC-257
# [3] = test system: SW-620
# [4] = test system: MOLT-4
# [5] = test system: BT-549
# [6] = test system: HCT-116
# [7] = test system: U-251
# [8] = test system: NCI-H23
# [9] = test system: CCRF-CEM
# [10] = test system: T47D
# [11] = test system: CAKI-1
# [12] = test system: HCC 2998
# [13] = test system: SR
# [14] = test system: OVCAR-4
# [15] = test system: OVCAR-5
# [16] = test system: DU-145
# [17] = test system: ACHN
# [18] = test system: A549
# [19] = test system: NCI-H522
SMILES,GI50 [1],GI50 [2],GI50 [3],GI50 [4],GI50 [5],GI50 [6],GI50 [7],GI50 [8],GI50 [9],GI50 [10],GI50 [11],GI50 [12],GI50 [13],GI50 [14],GI50 [15],GI50 [16],GI50 [17],GI50 [18],GI50 [19]
Oc1c(C(O)(c2ccccc2)c2ccc3ccccc3c2O)ccc2ccccc12,10.3 µM (inactive),10.2 µM (inactive),11.2 µM (inactive),1.88 µM (inactive),17.7 µM (inactive),7.76 µM (inactive),9.31 µM (inactive),5.12 µM (inactive),0.597 µM (active),2.96 µM (inactive),15 µM (inactive),6.87 µM (inactive),1.26 µM (inactive),8.93 µM (inactive),17.8 µM (inactive),15.6 µM (inactive),10.5 µM (inactive),12.1 µM (inactive),4.01 µM (inactive)
O=C(O)C(=Cc1ccc(-c2ccccc2)cc1)C(=O)O,9.75 µM (inactive),11.1 µM (inactive),11.3 µM (inactive),15.8 µM (inactive),8.79 µM (inactive),10.4 µM (inactive),12.5 µM (inactive),6.87 µM (inactive),4.06 µM (inactive),11 µM (inactive),14.5 µM (inactive),8.73 µM (inactive),1.49 µM (inactive),15.1 µM (inactive),> 39.5 µM (inactive),3.66 µM (inactive),18.6 µM (inactive),18 µM (inactive),6.82 µM (inactive)
CCOc1ccc2nc(NC(=O)/C(CC(=O)CC(C3=C(O)c4ccccc4CC3=O)c3ccccc3)=N\O)sc2c1 (centres undefined),> 100 µM (inactive),> 100 µM (inactive),> 100 µM (inactive),> 100 µM (inactive),> 100 µM (inactive),> 100 µM (inactive),> 100 µM (inactive),> 100 µM (inactive),> 100 µM (inactive),> 100 µM (inactive),> 100 µM (inactive),> 100 µM (inactive),> 100 µM (inactive),> 100 µM (inactive),> 100 µM (inactive),> 100 µM (inactive),> 100 µM (inactive),> 100 µM (inactive),> 100 µM (inactive)
COCC[N+](CCNC(=O)c1cccc2c(N)c3cccc(C)c3nc12)(CCOC)Cc1ccc([N+](=O)[O-])cc1,23.1 µM (inactive),16.9 µM (inactive),21.1 µM (inactive),3.57 µM (inactive),21.8 µM (inactive),17.2 µM (inactive),19.8 µM (inactive),29.8 µM (inactive),6.15 µM (inactive),18.1 µM (inactive),> 100 µM (inactive),4.92 µM (inactive),2.99 µM (inactive),43.3 µM (inactive),30.9 µM (inactive),17 µM (inactive),32.4 µM (inactive),13.5 µM (inactive),5.37 µM (inactive)
NC(=O)CC1(O)C=CC(=O)C=C1,> 100 µM (inactive),> 100 µM (inactive),> 100 µM (inactive),> 100 µM (inactive),> 100 µM (inactive),> 100 µM (inactive),> 100 µM (inactive),> 100 µM (inactive),> 100 µM (inactive),> 100 µM (inactive),41.9 µM (inactive),> 100 µM (inactive),88.7 µM (inactive),> 100 µM (inactive),> 100 µM (inactive),> 100 µM (inactive),> 100 µM (inactive),> 100 µM (inactive),26.8 µM (inactive)
CC(NC1=NCCO1)c1ccsc1 (centres undefined),20.3 µM (inactive),14.4 µM (inactive),21.5 µM (inactive),22.7 µM (inactive),31.6 µM (inactive),16.4 µM (inactive),18.2 µM (inactive),64.4 µM (inactive),19.4 µM (inactive),33.3 µM (inactive),> 100 µM (inactive),69.3 µM (inactive),24.8 µM (inactive),24.9 µM (inactive),> 100 µM (inactive),43.1 µM (inactive),44.9 µM (inactive),39.4 µM (inactive),17.7 µM (inactive)
